These results are taken from US4229471A, “N-(2-Ethylhexyl)-crotonamides” (The Lion Dentifrice Co., Ltd., priority 1978, dated 1980).

One may read the LD50 as the dose expected to kill half of the subjects tested.

In data set [1] the test system is cancerized mast cells (Mastocytoma P-815). Put plainly: Inhibition of growth of cancerized mast cells (Mastocytoma P-815) during 20 hours of cultivation. The data set is classed as cell-based, mouse. As to conditions: 20 hour cultivation, 37° C., FIG. 5. How it is done: 20 ml of a culture medium containing cancerized mast cells of a mouse (Mastocytoma P-815) at an inoculum cell concentration of 1.6×10^5 cells/ml in Fischer and Sartorelli's medium supplemented with 5% fetal calf serium were cultured in a 120 ml Erlenmeyer flask with or without drugs to be tested in an atmosphere of 5% CO2 and 95% air at 37° C. for 20 hours in a humidified incubator. Drugs, N-(2-ethylhexyl)-crotonamide, N-(2-ethylhexyl)-β-methylcrotonamide or N-(2-ethylhexyl)-β-hydroxybutyramide were added in different amounts to the initial culture medium. No drug was added to a control solution. After cultivation, the number of cells was counted.
The results are shown in FIG. 5 wherein A corresponds to N-(2-ethylhexyl)-crotonamide, B corresponds to N-(2-ethylhexyl)-beta-methylcrotonamide, C corresponds to N-(2-ethylhexyl)-beta-hydroxybutyramide, D is the inoculum cell number, and E corresponds to the control. A, B, C and E are the cell numbers after 20 hour cultivation as described above.

Data set [2] is described as follows: Acute toxicity test. As to conditions: in vivo, ip; ICR male mouse, intraperitoneal.
In data set [3] the test system is DNA synthesis in cancerized mast cells (Mastocytoma P-815). Nature of the data set: 3H-TdR incorporation into DNA of cancerized mast cells. The data set is classed as cell-based, mouse. As to conditions: for inhibition at 100 µg/mL / inhibition at 500 µg/mL: Mus musculus, P815, 1.25 h, read-out: DNA synthesis inhibition ratio. On the procedure:
Effects of drugs on ^3 H-TdR (tritium labelled thymidine) incorporation into DNA of cancerized mast cells were examined.
Cancerized mast cells (Mastocytoma P-815), 4.25×10^6 cells, were incubated for 15 minutes with or without each of drugs, A: (N-(2-ethylhexyl)-crotonamide), B: (N-(2-ethylhexyl)-β-methylcrotonamide) and C: (N-(2-ethylhexyl)-β-hydroxybutyramide) (each 100 μg and 500 μg) in 1 cc of Fischer culture medium. Thereafter, 0.1 μCi of ^3 H-TdR was added and incubation was proceeded for an additional 60 minutes. The cells were washed with PBS and the DNA was precipitated with 5% (W/V) trichloroacetic acid. Precipitates were counted in a liquid Scintillation Spectrometer.
*Inhibition ratio was calculated in terms of the following equation: […]
c : amount of ^3 H--TdR incorporated in the control group (cpm)
s : amount of ^3 H--TdR incorporated in the treated group (cpm)

Data set [4] has as its system Mastocytoma P-815. Nature of the data set: Ascites tumor (Mastocytoma P-815) inhibition in BDF1 mice. The data set is classed as in vivo. As to conditions: 0.5 mg/mouse/day × 6, intraperitoneal. How it is done:
Mice of BDF1 species (5 week old male, suppliers: Charles River and Shizuoka Laboratory Animal Center) were divided into four groups each containing three to six. Cancerized mast cells (Mastocytoma P-815) were implanted into the ascites of a mouse in an amount of 1×10^6 cells/mouse. From the next day, drug
A: N-(2-ethylhexyl)-crotonamide,
B: N-(2-ethylhexyl)-beta-methylcrotonamide, or
C: N-(2-ethylhexyl)-beta-hydroxybutyramide
was administered once a day by intra-peritoneal injection in an amount of 0.5 mg/mouse/day for 6 days, respectively. After 18 hours from the last administration, the mice were killed with ether for anesthesia. The entire ascitic cells were taken out with about 20 ml of phosphate buffered saline. Using the nigrosine staining method (0.01% nigrosine in Earl's balanced salt solution), the number of cells, particularly, live cells were counted by means of a Thomas leucocyte counting apparatus.
For the above-described administration procedure was used 50 mg of the drug to which 25 mg of polyoxyethylene sorbitan monooleate (Tween 80) was added and the mixture was suspended in 5 ml of physiological salt solution and sterilized in an autoclave at 120° C. under 2 atm. for 15 minutes. The resulting sterile suspension was ready for administration.
**Tumor inhibition ratio was calculated in terms of the following
C : number of ascites cancer cells in the control group
N : number of ascites cancer cells in the treated group

The nature of data set [5]: Solubility. Type of data set: physicochemical. As to conditions: for solubility in organic solvents: organic solvents such as acetone.
Data set [6] relates to cancerous cells. Nature of the data set: Carcinostatic activity (overall statement).
The mark [7] stands for this setting: Shizuoka Laboratory Animal Center BDF1 mice.

For the compound `C/C=C/C(=O)NCC(CC)CCCC` (stereo not drawn) [Drug A, N-(2-ethylhexyl)-crotonamide], in data set [1], the “inhibition of division and growth of cancerized mast cells” value is “more effective than N-(2-ethylhexyl)-β-hydroxybutyramide”. The compound also came in with a median lethal dose (LD50) in data set [2] of 540 mg/kg. In addition, the “inhibition of DNA synthesis (in words)” value in data set [3] was “effective in inhibiting DNA synthesis”. In addition, in data set [3] (100 μg in 1 cc medium), the “3H-TdR incorporated (cpm)” value turned out to be 400 cpm and the inhibition at 100 µg/mL was 90.1%. In addition, in data set [3] (500 μg in 1 cc medium), the “3H-TdR incorporated (cpm)” value is 75 cpm and the inhibition at 500 µg/mL was found to be 98.1%. Also, in data set [4] (Charles River BDF1 mice), the “Number of ascites cancer cells” value is given as 1.5 ×10^8 /mouse and the Tumor inhibition ratio came out at 90.9%. Besides, in data set [4] (setting [7]), the “Number of ascites cancer cells” value is reported as 1.2 ×10^8 /mouse and the Tumor inhibition ratio was 87.6%. In data set [5], the “solubility in organic solvents” value is on record as “soluble in organic solvents such as acetone” and the solubility in water result is “insoluble in water”. In addition, in data set [6], the carcinostatic activity entry is “high carcinostatic activity”.

On to `CCCCC(CC)CNC(=O)C=C(C)C` (stereo not drawn) [Drug B, N-(2-ethylhexyl)-β-methylcrotonamide], for which the “inhibition of division and growth of cancerized mast cells” value in data set [1] is listed as “more effective than N-(2-ethylhexyl)-β-hydroxybutyramide”. The compound also yielded a median lethal dose (LD50) in data set [2] of 1400 mg/kg. In data set [3], the “inhibition of DNA synthesis (in words)” value is reported as “effective in inhibiting DNA synthesis”. Further, in data set [3] (100 μg in 1 cc medium), the “3H-TdR incorporated (cpm)” value came to 200 cpm and the inhibition at 100 µg/mL was 95.1%. Also, in data set [3] (500 μg in 1 cc medium), the “3H-TdR incorporated (cpm)” value is 0 cpm and the inhibition at 500 µg/mL amounted to 100%. Also, in data set [4] (Charles River BDF1 mice), the “Number of ascites cancer cells” value was 9.5 ×10^8 /mouse and the Tumor inhibition ratio was 42.1%. Also, in data set [4] (setting [7]), the “Number of ascites cancer cells” value is listed as 4.0 ×10^8 /mouse and the Tumor inhibition ratio is 58.8%. In data set [5], the “solubility in organic solvents” value was “soluble in organic solvents such as acetone” and the solubility in water result is recorded as “insoluble in water”. Moreover, in data set [6], the carcinostatic activity entry is “high carcinostatic activity”.

Turning to `CCCCC(CC)CNC(=O)CC(C)O` (stereo not drawn) [Drug C, N-(2-ethylhexyl)-β-hydroxybutyramide, reference compound], in data set [3] (100 μg in 1 cc medium), the “3H-TdR incorporated (cpm)” value is recorded as 2205 cpm and the inhibition at 100 µg/mL is 45.6%. In addition, in data set [3] (500 μg in 1 cc medium), the “3H-TdR incorporated (cpm)” value turned out to be 1200 cpm and the inhibition at 500 µg/mL came to 70.4%. Also, in data set [4] (Charles River BDF1 mice), the “Number of ascites cancer cells” value is on record as 6.0 ×10^8 /mouse and the Tumor inhibition ratio stood at 63.4%. In data set [4] (setting [7]), the “Number of ascites cancer cells” value is given as 6.7 ×10^8 /mouse and the Tumor inhibition ratio is reported as 30.9%.
